One substance from patent US7264314B2, “Adrenocorticotropic hormone analogs and related methods” (priority 2004, dated 2007) can be followed below.

No end group written: not given here.

For test [1], the target named is T1, adrenal ACTH receptors such as MC-2R (explanted adrenal membrane) (Mus musculus, UniProt Q64326).
T1 construct: the adrenal halves were macerated or otherwise dissociated using Dounce Homogenizer to form a membrane fraction; from tissue; host or cells: membrane fraction of explanted mouse adrenal glands
Description: in vitro Serum-free Adrenal Competitive Binding Assay. On the set-up: species or system mice. The conditions noted are these: cold peptide at 10 nM, 100 nM, 1000 nM. The text has this:
ACTH analog compounds that bind to adrenal membrane with a greater affinity than endogenous unmodified ACTH, and are able to displace unmodified ACTH can be identified using an in vitro Serum-free Adrenal Competitive Binding Assay (Example 3). […] A higher CPM level indicates the presence of greater amounts of the radiolabelled compound. […] Column 220 indicates the level of radio-labeled unmodified mACTH(1–24) detected after combining the explanted adrenal membrane with only the radio-labeled mACTH(1–24) for 2 hours.(no competitive binding). Columns 230, 240, and 250 show the results of competitive binding assays for binding of non-radio-labeled (“cold”) mACTH(1–24) to displace the radio-labeled mACTH(1–24) from the explanted adrenal membrane (measured in column 220) by competitive binding to receptors such as MC-2R on the adrenal membrane. […]
ACTH analogs with the ability to bind adrenal receptors with a greater affinity than compounds with known adrenal binding activity (preferably ACTH) can also be identified by performing an in vitro Adrenal Competitive Binding Assay, whereby measurement of the reduction in the amount of the radiolabelled adrenal-binding compound (e.g., ACTH) is measured at various concentrations of non-radio-labeled ACTH analog test compound in a medium containing explanted adrenal membrane. […]

Test [2] has as its system corticosterone production by explanted mouse adrenal halves. In words: in vitro Serum-free Adrenal Inhibition Assay. It is filed as cell-based. The procedure: A series of separate in vitro Serum-Free Adrenal Corticosteroid Inhibition Assay were performed to identify ACTH analogs that inhibit ACTH-induced adrenal hormone production in vitro. The concentration of corticosterone was measured according to the procedure of Example 4 in a serum-free culture medium containing explanted adrenal membrane and unmodified ACTH, AT814 ACTH analog (SEQ ID NO:20), or a combination of ACTH and AT814 at 100 ng/mL each. […] Corticosterone levels were taken at 2.0 hours after the adrenal membrane was placed in the serum free M199 medium, and each corticosterone level in Table 5 is an average of five samples.
The in vitro Serum-free Adrenal Inhibition Assay was performed according the following method. First, adrenals were removed from mice, dissected free of fat, and cut in half. See Costa, J L, et al., “Mutational analysis of evolutionarily conserved ACTH residues,” Gen Comp Endocrinol. 136:12–16 (2004); and Weber, M M, et al., “Postnatal overexpression of insulin-like growth factor II in transgenic mice is associated with adrenocortical hyperplasia and enhanced steroidogenesis,” Endocrinology 140:1537–1543 (1999), incorporated herein by reference.
Second, each adrenal half was placed into an individual well of a 4-well dish, one dish per mouse. Adrenal halves were incubated at 5% CO2, 37° C., in 0.5 ml serum-free medium (M199; Invitrogen) for 30 minutes to equilibrate.
Third, medium was removed and replaced by 0.5 ml M199 containing ACTH, AT814, or both, at 100 ng/ml each; controls had no peptides added.
Fourth, after 2 hours of incubation, the medium was removed, pooled for all four halves from each mouse, and assayed by corticosterone using standard RIA methods. corticosterone was determined by competitive radioimmunoassay (^125I RIA kit; ICN, Costa Mesa, Calif.) according to the manufacturer's recommendations. One microliter of serum was used per assay sample. Samples were run in duplicates.

T1 sequence (Q64326 whole entry): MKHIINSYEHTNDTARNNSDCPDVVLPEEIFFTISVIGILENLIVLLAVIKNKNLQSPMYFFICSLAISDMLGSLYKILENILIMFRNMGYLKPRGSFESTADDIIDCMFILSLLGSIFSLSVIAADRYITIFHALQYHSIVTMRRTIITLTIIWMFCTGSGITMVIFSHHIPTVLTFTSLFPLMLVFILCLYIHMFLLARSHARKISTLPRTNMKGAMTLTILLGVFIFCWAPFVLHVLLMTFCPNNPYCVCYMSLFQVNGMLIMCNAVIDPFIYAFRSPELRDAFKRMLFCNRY
T1 sequence (Q9D159 whole entry partner): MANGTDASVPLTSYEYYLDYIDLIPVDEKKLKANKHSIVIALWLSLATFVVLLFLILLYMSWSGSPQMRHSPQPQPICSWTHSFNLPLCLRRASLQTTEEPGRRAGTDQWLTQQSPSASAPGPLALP

With “N-Ser^1-Tyr-Ser-Met-Glu^5-His-Phe-Arg-Trp-Gly^10-Lys-Pro-Val-Gly-Lys^15-Arg-Ala-Ala-Trp-Val^20-Lys-Val-Tyr-Pro-Ac (SYSMEHFRWGKPVGKRAAWVKVYP; not fully specified (C-terminus); printed as N-Ser1-Tyr-Ser-Met-Glu5-His-Phe-Arg-Trp-Gly10-Lys-Pro-Val-Gly-Lys15-Arg-Ala-Ala-Trp-Val20-Lys-Val-Tyr-Pro-Ac) [AT814]”, the “displacement of radio-labeled mACTH(1–24) from explanted adrenal membrane (CPM)” value in test [1] is given as “displacement of the radio-labeled mACTH(1–24)”. Further, the “corticosterone induction relative to ACTH (FIG. 4)” value in test [2] (AT814 alone) is listed as “negligible amount of corticosterone induction”. In test [2] (equal amounts of AT814 and unmodified ACTH), the “reduction of corticosterone induction compared to unmodified ACTH alone” value is listed as “about 65%”. Also, the “corticosterone level in M199 serum-free medium” value in test [2] (peptide alone, 100 ng/mL, 2 hours after addition, average of five samples, listed as (KKRRP15-19KRAAW) mACTH(1–24)) is given as “about 290 mg/mL”.
